Entries after “also recorded” stand apart in the source; their conditions may differ.
Assays:
[1] = system: Bacillus subtilis; experiment: agar diffusion-zone of inhibition assay; assay type: cell-based; details: for Zone of Clearing (cm) B. subtilis: Example 1, 0.5 μg spotted
[2] = system: Saccharomyces cerevisiae; experiment: agar diffusion-zone of inhibition assay; assay type: cell-based; details: for Zone of Clearing (cm) Yeast: Example 1, 0.5 μg spotted
[3] = system: AtchitIV5 N-glycosylation; experiment: Pichia-based protein N-glycosylation assay (SDS-PAGE); assay type: cell-based; details: Example 2, 20 μg/mL, added at methanol induction
[4] = system: B. subtilis strain MW10; experiment: beta-lactam enhancement, broth dilution MIC with resazurin; details: for MIC of the beta-lactam without any tunicamycins or tunicamycin related compounds added: beta-lactam alone
[5] = system: cell wall teichoic acid (WTA) pathway; details: background, literature; cited from earlier work
[6] = system: Chinese hamster ovary (CHO) cells; experiment: cytotoxicity against mammalian cell line in culture; assay type: cell-based; details: FIG. 8A, 0.5 μg, 1.0 μg, 2.0 μg
Description: Chinese hamster ovary (CHO) cells are chosen for this experiment because they have been used previously as a model for tunicamycin toxicity. See, e.g., Scocca and Krag, J. Biol. Chem., 265:20621-20626 (1990). A human cell line (MDA-MB-231 triple negative human breast cancer cells) are also used because their known susceptibility to tunicamycin. See, Banerjee, et al., Cancer Res. 71:2095 (2011). The protocols used are described in Duksin & Bornstein, Proc. Natl. Acad. Sci. (U.S.A.), 74:3433-3437 (1977).

| Compound | Zone of Clearing (cm) B. subtilis [1] [cm] | Zone of Clearing (cm) Yeast [2] [cm] | antimicrobial activity on Bacillus (in words) [1] | toxicity / antimicrobial activity on S. cerevisiae (in words) [2] | other results |
| --- | --- | --- | --- | --- | --- |
| CC(=O)NC1C(O)[C@H](O)C(CO)O[C@@H]1OC1O[C@H](C[C@@H](O)C2O[C@@H](n3ccc(=O)[nH]c3=O)[C@H](O)[C@@H]2O)C(O)C(O)[C@H]1N (some centres unmarked) [Compound 1] | 0 | 0 | – | – | – |
| CC(=O)NC1C(O)[C@H](O)[C@H](CO)O[C@@H]1O[C@@H]1O[C@H](C[C@@H](O)C2O[C@@H](n3ccc(=O)[nH]c3=O)[C@H](O)[C@@H]2O)C(O)C(O)[C@H]1NC(=O)/C=C/CCCCCCCCCC(C)C (some centres unmarked) [Compound 2] | 2.5 | 2.4 | same antimicrobial activity as the native tunicamycin | same antimicrobial activity as the native tunicamycin | inhibition of AtchitIV5 N-glycosylation (in words) [3]: same effect as the naturally occurring tunicamycins |
| CC(=O)NC1C(O)[C@H](O)[C@H](CO)O[C@@H]1O[C@@H]1O[C@H](C[C@@H](O)C2O[C@@H](n3ccc(=O)[nH]c3=O)[C@H](O)[C@@H]2O)C(O)C(O)[C@H]1NC(=O)CCCCCCCCCCCC(C)C (some centres unmarked) [Compound 3] | 2.3 | 0.2 | comparable response | considerably less toxic; also recorded: reduced toxicity | inhibition of AtchitIV5 N-glycosylation (in words) [3]: less effective inhibitor |
| CC(C)CCCCCCCCC/C=C/C(=O)N[C@@H]1C(O)C(O)[C@@H](C[C@@H](O)C2O[C@@H](n3ccc(=O)[nH]c3=O)[C@H](O)[C@@H]2O)O[C@H]1O[C@H]1O[C@@H](CO)[C@@H](O)C(O)C1N=[N+]=[N-] (some centres unmarked) [Compound 4] | 1.6 | 0 | almost equivalent to the native tunicamycin | essentially non-toxic; also recorded: reduced toxicity | – |
| [N-]=[N+]=NC1C(O)[C@H](O)C(CO)O[C@@H]1OC1O[C@H](C[C@@H](O)C2O[C@@H](n3ccc(=O)[nH]c3=O)[C@H](O)[C@@H]2O)C(O)C(O)[C@H]1N1C(=O)c2ccccc2C1=O (some centres unmarked) [Compound 5] | 0 | 0 | – | – | – |
| COc1ccc(O[C@@H]2OC([C@H](O)C[C@H]3OC(O[C@H]4OC(CO)[C@@H](O)C(O)C4NC(C)=O)[C@H](N)C(O)C3O)[C@@H](O)[C@H]2O)cc1 (some centres unmarked) [Compound 6] | 0 | 0 | no antimicrobial biological activity | no antimicrobial biological activity | – |
| COc1ccc(O[C@@H]2OC([C@H](O)C[C@H]3O[C@@H](O[C@H]4O[C@@H](CO)[C@@H](O)C(O)C4NC(C)=O)[C@H](NC(=O)/C=C/CCCCCCCCCC(C)C)C(O)C3O)[C@@H](O)[C@H]2O)cc1 (some centres unmarked) [Compound 7] | 0 | 0 | no antimicrobial biological activity | no antimicrobial biological activity | – |
| CC(=O)NC1C(O)[C@H](O)C(CO)O[C@@H]1OC1O[C@H](C[C@@H](O)C2O[C@@H](n3ccc(=O)[nH]c3=O)[C@H](O)[C@@H]2O)C(O)C(O)[C@H]1NC(C)=O (some centres unmarked) [Compound 9] | 0 | 0 | – | – | – |
| CC(=O)NC1C(O)[C@H](O)[C@H](CO)O[C@@H]1O[C@@H]1O[C@H](C[C@@H](O)C2O[C@@H](n3cnc4c(N)ncnc43)[C@H](O)[C@@H]2O)C(O)C(O)[C@H]1NC(=O)/C=C/CCCCCCCCCC(C)C (some centres unmarked) [Compound 10] | 0 | 0 | no antimicrobial biological activity | no antimicrobial biological activity | – |
| COc1cccc(OC)c1C(=O)N[C@@H]1C(=O)N2[C@@H]1SC(C)(C)[C@@H]2C(=O)O [methicillin] | – | – | – | – | MIC of the beta-lactam without any tunicamycins or tunicamycin related compounds added [4]: 0.125 µg/mL |
| Cc1onc(-c2ccccc2)c1C(=O)N[C@@H]1C(=O)N2[C@@H]1SC(C)(C)[C@@H]2C(=O)O [oxacillin] | – | – | – | – | MIC ([4]; Bacillus subtilis, MW10, read-out: MIC of oxacillin only): 0.125 µg/mL; MIC of the beta-lactam without any tunicamycins or tunicamycin related compounds added [4]: 0.25 µg/mL |
| CC1(C)S[C@@H]2[C@H](NC(=O)Cc3ccccc3)C(=O)N2[C@H]1C(=O)O [penicillin G] | – | – | – | – | MIC of the beta-lactam without any tunicamycins or tunicamycin related compounds added [4]: 0.025 µg/mL |
| C[C@H]1[C@@H](c2cc(C(F)(F)F)cc(C(F)(F)F)c2)OC(=O)N1C(=O)CCc1cncc2ccccc12 [tarocin A1] | – | – | – | – | depletion of the cell wall teichoic acid polymer (in words) [5]: complete depletion |
| quinovosamycin | – | – | – | – | toxicity to CHO cells (in words) [6]: toxic |

Reference: patent publication US10513533B2, “Tunicamycin related compounds with anti-bacterial activity” (priority 2017, dated 2019)
